In BindingDB's records for doi:10.1111/j.1432-1033.1992.tb17043.x (Universit&Eacute, 1992):
Non-standard residues stand in square brackets, D forms with d. Residues, ends and D or L forms follow the SMILES beside them. ξ: configuration not given here. Ile(3ξ) = CCC(C)[C@H](N)C(=O)O

biological target: T1, Pituitary adenylate cyclase-activating polypeptide (Homo sapiens, UniProt P18509)
T1 sequence (P18509 whole entry): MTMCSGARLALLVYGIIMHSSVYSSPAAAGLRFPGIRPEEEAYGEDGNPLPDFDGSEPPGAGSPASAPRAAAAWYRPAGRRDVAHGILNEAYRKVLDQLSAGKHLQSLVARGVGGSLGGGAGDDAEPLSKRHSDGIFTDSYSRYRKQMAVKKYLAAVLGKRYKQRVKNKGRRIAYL

| SMILES | Ki [nM] |
| --- | --- |
| CSCC[C@H](NC(=O)[C@H](CCC(N)=O)NC(=O)[C@H](CCCCN)NC(=O)[C@H](CCCNC(=N)N)NC(=O)[C@H](Cc1ccc(O)cc1)NC(=O)[C@H](CCCNC(=N)N)NC(=O)[C@H](CO)NC(=O)[C@H](Cc1ccc(O)cc1)NC(=O)[C@H](CO)NC(=O)[C@H](CC(=O)O)NC(=O)[C@@H](NC(=O)[C@@H](N)Cc1ccccc1)[C@@H](C)O)C(=O)N[C@@H](C)C(=O)N[C@H](C(=O)N[C@@H](CCCCN)C(=O)N[C@@H](CCCCN)C(=O)N[C@@H](Cc1ccc(O)cc1)C(=O)N[C@@H](CC(C)C)C(=O)N[C@@H](C)C(=O)N[C@@H](C)C(=O)N[C@H](C(=O)N[C@@H](CC(C)C)C(=O)NCC(=O)N[C@@H](CCCCN)C(=O)N[C@@H](CCCNC(=N)N)C(=O)N[C@@H](Cc1ccc(O)cc1)C(=O)N[C@@H](CCCCN)C(=O)N[C@@H](CCC(N)=O)C(=O)N[C@@H](CCCNC(=N)N)C(=O)N[C@H](C(=O)N[C@@H](CCCCN)C(=O)N[C@@H](CC(N)=O)C(=O)N[C@@H](CCCCN)C(N)=O)C(C)C)C(C)C)C(C)C | 1.5 |
| CCC(C)[C@H](NC(=O)CN)C(=O)N[C@@H](Cc1ccccc1)C(=O)N[C@H](C(=O)N[C@@H](CC(=O)O)C(=O)N[C@@H](CO)C(=O)N[C@@H](Cc1ccc(O)cc1)C(=O)N[C@@H](CO)C(=O)N[C@@H](CCCN=C(N)N)C(=O)N[C@@H](Cc1ccc(O)cc1)C(=O)N[C@@H](CCCN=C(N)N)C(=O)N[C@@H](CCCCN)C(=O)N[C@@H](CCC(N)=O)C(=O)N[C@@H](CCSC)C(=O)N[C@@H](C)C(=O)N[C@H](C(=O)N[C@@H](CCCCN)C(=O)N[C@@H](CCCCN)C(=O)N[C@@H](Cc1ccc(O)cc1)C(=O)N[C@@H](CC(C)C)C(=O)N[C@@H](C)C(=O)N[C@@H](C)C(=O)N[C@H](C(=O)N[C@@H](CC(C)C)C(=O)NCC(=O)N[C@@H](CCCCN)C(=O)N[C@@H](CCCN=C(N)N)C(=O)N[C@@H](Cc1ccc(O)cc1)C(=O)N[C@@H](CCCCN)C(=O)N[C@@H](CCC(N)=O)C(=O)N[C@@H](CCCN=C(N)N)C(=O)N[C@H](C(=O)N[C@@H](CCCCN)C(=O)N[C@@H](CC(N)=O)C(=O)N[C@@H](CCCCN)C(N)=O)C(C)C)C(C)C)C(C)C)[C@@H](C)O (stereo not given in full) [PACAP(4-38)] (H-G[Ile(3ξ)]FTDSYSRYRKQMAVKKYLAAVLGKRYKQRVKNK-NH2) | 5 |
| CCC(C)[C@H](N)C(=O)N[C@@H](Cc1ccccc1)C(=O)N[C@H](C(=O)N[C@@H](CC(=O)O)C(=O)N[C@@H](CO)C(=O)N[C@@H](Cc1ccc(O)cc1)C(=O)N[C@@H](CO)C(=O)N[C@@H](CCCN=C(N)N)C(=O)N[C@@H](Cc1ccc(O)cc1)C(=O)N[C@@H](CCCN=C(N)N)C(=O)N[C@@H](CCCCN)C(=O)N[C@@H](CCC(N)=O)C(=O)N[C@@H](CCSC)C(=O)N[C@@H](C)C(=O)N[C@H](C(=O)N[C@@H](CCCCN)C(=O)N[C@@H](CCCCN)C(=O)N[C@@H](Cc1ccc(O)cc1)C(=O)N[C@@H](CC(C)C)C(=O)N[C@@H](C)C(=O)N[C@@H](C)C(=O)N[C@H](C(=O)N[C@@H](CC(C)C)C(N)=O)C(C)C)C(C)C)[C@@H](C)O (stereo not given in full) [PACAP(5-27)] (H-[Ile(3ξ)]FTDSYSRYRKQMAVKKYLAAVL-NH2) | 150 |
| CC[C@H](C)[C@H](NC(=O)CNC(=O)[C@H](CC(=O)O)NC(=O)[C@@H](Cc1ccccc1)NC(=O)[C@H](Cc1cnc[nH]1)NC(C)=O)C(=O)N[C@@H](Cc1ccccc1)C(=O)N[C@H](C(=O)N[C@@H](CC(=O)O)C(=O)N[C@@H](CO)C(=O)N[C@@H](Cc1ccc(O)cc1)C(=O)N[C@@H](CO)C(=O)N[C@@H](CCCN=C(N)N)C(=O)N[C@@H](Cc1ccc(O)cc1)C(=O)N[C@@H](CCCN=C(N)N)C(=O)N[C@@H](CCCCN)C(=O)N[C@@H](CCC(N)=O)C(=O)N[C@@H](CCSC)C(=O)N[C@@H](C)C(=O)N[C@H](C(=O)N[C@@H](CCCCN)C(=O)N[C@@H](CCCCN)C(=O)N[C@@H](Cc1ccc(O)cc1)C(=O)N[C@@H](CC(C)C)C(=O)N[C@@H](C)C(=O)N[C@@H](C)C(=O)N[C@H](C(=O)N[C@@H](CC(C)C)C(=O)NCC(=O)N[C@@H](CCCCN)C(=O)N[C@@H](CCCN=C(N)N)C(=O)N[C@@H](Cc1ccc(O)cc1)C(=O)N[C@@H](CCCCN)C(=O)N[C@@H](CCC(N)=O)C(=O)N[C@@H](CCCN=C(N)N)C(=O)N[C@H](C(=O)N[C@@H](CCCCN)C(=O)N[C@@H](CC(N)=O)C(=O)N[C@@H](CCCCN)C(N)=O)C(C)C)C(C)C)C(C)C)[C@@H](C)O [[AcHis1,DPhe2]PACAP(1-38)] | 10 |

More lines, now with the values ahead:

| Ki [nM] | SMILES |
| --- | --- |
| 200 | CCC(C)[C@H](NC(=O)CNC(=O)[C@@H](N)CC(=O)O)C(=O)N[C@@H](Cc1ccccc1)C(=O)N[C@H](C(=O)N[C@@H](CC(=O)O)C(=O)N[C@@H](CO)C(=O)N[C@@H](Cc1ccc(O)cc1)C(=O)N[C@@H](CO)C(=O)N[C@@H](CCCN=C(N)N)C(=O)N[C@@H](Cc1ccc(O)cc1)C(=O)N[C@@H](CCCN=C(N)N)C(=O)N[C@@H](CCCCN)C(=O)N[C@@H](CCC(N)=O)C(=O)N[C@@H](CCSC)C(=O)N[C@@H](C)C(=O)N[C@H](C(=O)N[C@@H](CCCCN)C(=O)N[C@@H](CCCCN)C(=O)N[C@@H](Cc1ccc(O)cc1)C(=O)N[C@@H](CC(C)C)C(=O)N[C@@H](C)C(=O)N[C@@H](C)C(=O)N[C@H](C(=O)N[C@@H](CC(C)C)C(N)=O)C(C)C)C(C)C)[C@@H](C)O (stereo not given in full) [PACAP(3-27)] (H-DG[Ile(3ξ)]FTDSYSRYRKQMAVKKYLAAVL-NH2) |
| 5 | CCC(C)[C@H](N)C(=O)N[C@@H](Cc1ccccc1)C(=O)N[C@H](C(=O)N[C@@H](CC(=O)O)C(=O)N[C@@H](CO)C(=O)N[C@@H](Cc1ccc(O)cc1)C(=O)N[C@@H](CO)C(=O)N[C@@H](CCCN=C(N)N)C(=O)N[C@@H](Cc1ccc(O)cc1)C(=O)N[C@@H](CCCN=C(N)N)C(=O)N[C@@H](CCCCN)C(=O)N[C@@H](CCC(N)=O)C(=O)N[C@@H](CCSC)C(=O)N[C@@H](C)C(=O)N[C@H](C(=O)N[C@@H](CCCCN)C(=O)N[C@@H](CCCCN)C(=O)N[C@@H](Cc1ccc(O)cc1)C(=O)N[C@@H](CC(C)C)C(=O)N[C@@H](C)C(=O)N[C@@H](C)C(=O)N[C@H](C(=O)N[C@@H](CC(C)C)C(=O)NCC(=O)N[C@@H](CCCCN)C(=O)N[C@@H](CCCN=C(N)N)C(=O)N[C@@H](Cc1ccc(O)cc1)C(=O)N[C@@H](CCCCN)C(=O)N[C@@H](CCC(N)=O)C(=O)N[C@@H](CCCN=C(N)N)C(=O)N[C@H](C(=O)N[C@@H](CCCCN)C(=O)N[C@@H](CC(N)=O)C(=O)N[C@@H](CCCCN)C(N)=O)C(C)C)C(C)C)C(C)C)[C@@H](C)O (stereo not given in full) [PACAP(5-38)] (H-[Ile(3ξ)]FTDSYSRYRKQMAVKKYLAAVLGKRYKQRVKNK-NH2) |
| 1000 | CCC(C)[C@H](NC(=O)CNC(=O)[C@H](CC(=O)O)NC(=O)[C@@H](Cc1ccccc1)NC(=O)[C@H](Cc1cnc[nH]1)NC(C)=O)C(=O)N[C@@H](Cc1ccccc1)C(=O)N[C@H](C(=O)N[C@@H](CC(=O)O)C(=O)N[C@@H](CO)C(=O)N[C@@H](Cc1ccc(O)cc1)C(=O)N[C@@H](CO)C(=O)N[C@@H](CCCN=C(N)N)C(=O)N[C@@H](Cc1ccc(O)cc1)C(=O)N[C@@H](CCCN=C(N)N)C(=O)N[C@@H](CCCCN)C(=O)N[C@@H](CCC(N)=O)C(=O)N[C@@H](CCSC)C(=O)N[C@@H](C)C(=O)N[C@H](C(=O)N[C@@H](CCCCN)C(=O)N[C@@H](CCCCN)C(=O)N[C@@H](Cc1ccc(O)cc1)C(=O)N[C@@H](CC(C)C)C(=O)N[C@@H](C)C(=O)N[C@@H](C)C(=O)N[C@H](C(=O)N[C@@H](CC(C)C)C(N)=O)C(C)C)C(C)C)[C@@H](C)O (stereo not given in full) [[AcHis1,DPhe2]PACAP(1-27)] |
| 100 | CCC(C)[C@H](NC(=O)CNC(=O)[C@H](CC(=O)O)NC(=O)[C@H](Cc1ccccc1)NC(=O)[C@H](Cc1cnc[nH]1)NC(C)=O)C(=O)N[C@@H](Cc1ccccc1)C(=O)N[C@H](C(=O)N[C@@H](CC(=O)O)C(=O)N[C@@H](CO)C(=O)N[C@@H](Cc1ccc(O)cc1)C(=O)N[C@@H](CO)C(=O)N[C@@H](CCCN=C(N)N)C(=O)N[C@@H](Cc1ccc(O)cc1)C(=O)N[C@@H](CCCN=C(N)N)C(=O)N[C@@H](CCCCN)C(=O)N[C@@H](CCC(N)=O)C(=O)N[C@@H](CCSC)C(=O)N[C@@H](C)C(=O)N[C@H](C(=O)N[C@@H](CCCCN)C(=O)N[C@@H](CCCCN)C(=O)N[C@@H](Cc1ccc(O)cc1)C(=O)N[C@@H](CC(C)C)C(=O)N[C@@H](C)C(=O)N[C@@H](C)C(=O)N[C@H](C(=O)N[C@@H](CC(C)C)C(N)=O)C(C)C)C(C)C)[C@@H](C)O (stereo not given in full) [[AcHis1,Phe2]PACAP(1-27)] |
| 10 | CCC(C)[C@H](NC(=O)CNC(=O)[C@H](CC(=O)O)NC(=O)[C@H](Cc1ccccc1)NC(=O)[C@H](Cc1cnc[nH]1)NC(C)=O)C(=O)N[C@@H](Cc1ccccc1)C(=O)N[C@H](C(=O)N[C@@H](CC(=O)O)C(=O)N[C@@H](CO)C(=O)N[C@@H](Cc1ccc(O)cc1)C(=O)N[C@@H](CO)C(=O)N[C@@H](CCCN=C(N)N)C(=O)N[C@@H](Cc1ccc(O)cc1)C(=O)N[C@@H](CCCN=C(N)N)C(=O)N[C@@H](CCCCN)C(=O)N[C@@H](CCC(N)=O)C(=O)N[C@@H](CCSC)C(=O)N[C@@H](C)C(=O)N[C@H](C(=O)N[C@@H](CCCCN)C(=O)N[C@@H](CCCCN)C(=O)N[C@@H](Cc1ccc(O)cc1)C(=O)N[C@@H](CC(C)C)C(=O)N[C@@H](C)C(=O)N[C@@H](C)C(=O)N[C@H](C(=O)N[C@@H](CC(C)C)C(=O)NCC(=O)N[C@@H](CCCCN)C(=O)N[C@@H](CCCN=C(N)N)C(=O)N[C@@H](Cc1ccc(O)cc1)C(=O)N[C@@H](CCCCN)C(=O)N[C@@H](CCC(N)=O)C(=O)N[C@@H](CCCN=C(N)N)C(=O)N[C@H](C(=O)N[C@@H](CCCCN)C(=O)N[C@@H](CC(N)=O)C(=O)N[C@@H](CCCCN)C(N)=O)C(C)C)C(C)C)C(C)C)[C@@H](C)O (stereo not given in full) [[AcHis1,Phe2]PACAP(1-38)] |
| 200 | CC[C@H](C)[C@H](NC(=O)CNC(=O)[C@H](CC(N)=O)NC(=O)[C@H](CO)NC(=O)[C@@H](N)Cc1cnc[nH]1)C(=O)N[C@@H](Cc1ccccc1)C(=O)N[C@H](C(=O)N[C@@H](CC(=O)O)C(=O)N[C@@H](CO)C(=O)N[C@@H](Cc1ccc(O)cc1)C(=O)N[C@@H](CO)C(=O)N[C@@H](CCCNC(=N)N)C(=O)N[C@@H](Cc1ccc(O)cc1)C(=O)N[C@@H](CCCNC(=N)N)C(=O)N[C@@H](CCCCN)C(=O)N[C@@H](CCC(N)=O)C(=O)N[C@@H](CCSC)C(=O)N[C@@H](C)C(=O)N[C@H](C(=O)N[C@@H](CCCCN)C(=O)N[C@@H](CCCCN)C(=O)N[C@@H](Cc1ccc(O)cc1)C(=O)N[C@@H](CC(C)C)C(=O)N[C@@H](C)C(=O)N[C@@H](C)C(=O)N[C@H](C(=O)N[C@@H](CC(C)C)C(N)=O)C(C)C)C(C)C)[C@@H](C)O [[Asn3]PACAP(1-27)] |
